Results as given in the METLIN SMRT retention time set (Domingo-Almenara et al. 2019).

experiment: gradient 5% acetonitrile 3 min, to 50% in 2 min, to 85% in 15 min, held 3 min, 100 µL/min; conditions: column: Zorbax Extend-C18 2.1 x 50 mm; eluents: water / acetonitrile, 0.1% formic acid
Method in brief: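 Each retention time is based on an adduct peak selected computationally and verified by manual inspection. Measurements used HPLC–quadrupole time-of-flight mass spectrometry in positive and negative ionization mode on mixtures of ~100 pure standards. Chromatography ran on a Zorbax Extend-C18 column (2.1 × 50 mm, 1.8 μm) at 100 μL/min with water and acetonitrile, each containing 0.1% formic acid, and dead and dwell volumes of 40 μL and 900 μL.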

SMILES	RP-LC retention time
Cc1nn(-c2ccc(-c3ccccc3)nn2)c(C)c1S(=O)(=O)N1CCN(c2ccccn2)CC1	776 s
CCc1ccc(NC(=O)C2CCCN2S(=O)(=O)c2ccc3c(c2)CCCC(=O)N3)cc1 (stereo unspecified)	835 s
CCN1CCC2(CC1)N=C(c1ccc3c(c1)OCO3)CC(c1cc(Br)ccc1O)N2 (stereo unspecified)	634 s
O=C(NC1CCCC1)c1ccc2c(c1)nc1n2CCN(C2CCCCC2)C1=O	763 s
CCSc1nnc(-c2nn(C)c3c2CN(S(=O)(=O)c2cccc(Cl)c2C)CC3)n1CC	1050 s
CCC(C)NC(=O)c1ccc(CN2CCN(Cc3ccccc3)C(=O)C2=O)cc1 (stereo unspecified)	721 s
CNC(=O)c1cc[nH]c1C1CCCN(C(=O)c2cscn2)C1 (stereo unspecified)	591 s
CCN1C(=O)c2cccc3c(NC(=O)c4ccc(C(=O)OC)cc4)ccc1c23	638 s
CCc1ccc(Nc2nc(C(=O)N3CCCCCC3)nc3ccccc23)cc1	910 s
CCN1C(=O)C2(CCN(S(=O)(=O)c3ccc(Cl)cc3C)CC2)c2ccccc21	1200 s
Cc1c(-c2noc(C(=O)N3CCN(Cc4ccc5c(c4)OCO5)CC3)n2)oc2c(C)cccc12	837 s
Nc1ccc(-c2nc3ccccc3s2)cc1	803 s
Cc1nc(-c2cn(C)c3ncccc23)sc1C(=O)NC1CCCCCC1	995 s
CCOc1cccc(C(=O)Nc2nc(-c3ccc(C(C)(C)C)cc3)cs2)c1	1430 s
O=C(Cn1c(=O)cc(-c2nc(C3CC3)no2)c2ccccc21)NCc1ccc2c(c1)OCO2	906 s
O=C(NC1CCCC1)N1CCN(c2ncccc2-c2nnc(C3CC3)o2)CC1	719 s
O=C(c1ccc(Br)o1)N1CC2CN(S(=O)(=O)c3ccccc3)CC(C1)O2	781 s
CS(=O)(=O)N1CCCC(C(=O)N(Cc2ccccc2)Cc2ccccc2)C1 (stereo unspecified)	886 s
O=C(Nc1ccc2c(c1)OCO2)C1CCc2sc(C(=O)N3CCCC3)cc2C1 (stereo unspecified)	730 s
CCCc1ccc(S(=O)(=O)N2CCC3(CC2)C(=O)N(CC)c2ccccc23)cc1	1160 s
Cc1noc(-c2cccc(OC3CN(C(=O)c4cccc5[nH]ccc45)C3)c2)n1	824 s
CCOc1ccc(OCC)c(NC(=O)CSc2nnc3c4cc(-c5ccc(OC)cc5)nn4ccn23)c1	1010 s

SMILES	RP-LC retention time
CN1C(=O)c2cccnc2Sc2cc(C(=O)NCc3ccccc3Cl)ccc21	806 s
CC(C)n1cnc2c(NCCc3ccc(O)cc3)nc(-c3csc4ccccc34)nc21	1160 s
CCOc1cc(C(=O)N2CCN(c3cc(-c4cccs4)[nH]n3)CC2)cc(OCC)c1OCC	907 s
CCC(=O)N1CCc2cc(C(=O)N3CCCCCC3)ccc21	770 s
COc1cc2nc(C(=O)N3CCCCC3)cc(Nc3ccc(F)c(Cl)c3)c2cc1OC	735 s
CCCN1CCN(C(=O)CN2CCN(C(=O)Nc3ccc(Br)cc3)CC2=O)CC1	597 s
CCS(=O)(=O)N1C[C@@H](COc2ccncc2)[C@H](c2ccccn2)C1	512 s
COc1ccccc1CNC(=O)C1c2ccccc2C(=O)N2CCc3cc(OC)c(OC)cc3C12 (stereo unspecified)	735 s
Cn1c(CNC(=O)C2(Cc3ccccc3)CCCCC(=O)N2)nc2ccccc21 (stereo unspecified)	630 s
O=C(NCCc1ccccc1)c1nnc(-c2ccc(S(=O)(=O)N3CCCCC3)cc2)o1	1040 s
Cc1nc2sc(C)c(C)n2c(=O)c1NC(=O)COc1ccc(Cl)cc1Cl	827 s
Cc1csc(COc2ccc(C(=O)Nc3ccccc3OC(F)(F)F)cc2)n1	933 s
CCOc1nc2ccccc2nc1N1CCCC(C(=O)NCc2ccccc2Cl)C1 (stereo unspecified)	1220 s
C=CCNC(=O)NC1CCN(C2=NS(=O)(=O)C(c3ccc(C)cc3)=C2C)CC1	736 s
CCOc1nc2ccccc2nc1N1CCCC(C(=O)Nc2cccc3ccccc23)C1 (stereo unspecified)	1230 s
COc1cc(C(=O)N2CCC3(CC2)NC(=O)c2cc(F)ccc2N3C)cc(OC)c1OC	655 s
O=C([C@@H]1C[C@H](F)CN1C(=O)Nc1cccc(Cl)c1)N1CCCCC1	747 s
Cc1csc(-c2ccc(N3CCN(C(=O)c4ccc5ccccc5n4)CC3)nc2)n1	833 s
O=C(Nc1ccc2c(c1)CCCN2C(=O)C1CC1)c1ccccc1[N+](=O)[O-]	716 s
CCOC(=O)c1oc2ccc(S(=O)(=O)N3CCCC(CN4CCCC4)CC3)cc2c1C (stereo unspecified)	733 s
O=C(C1CCCN(c2nnc3ccc(C(F)(F)F)cn23)C1)N1CCCCC1 (stereo unspecified)	670 s
O=C(NC1CCN(Cc2ccccc2)CC1)C1CCN(c2cnc3nccnc3c2)CC1	570 s

SMILES	RP-LC retention time
O=C(NC1CCCC1)c1nnc(-c2ccc(S(=O)(=O)N3CCCC3)cc2)o1	855 s
CCOc1ccc(-c2noc(CN3C(=O)C(C)Oc4ccccc43)n2)cc1OC (stereo unspecified)	1040 s
Cc1ccccc1NS(=O)(=O)c1cc(-c2[nH]ncc2C(=O)N2CCCC2)oc1C	700 s
COC(=O)c1c(-c2cccs2)csc1NC(=O)c1cc(OC)c(OC)c(OC)c1	1120 s
Cc1cc(NC(=O)C2CCN(C(=O)Cc3c(C)noc3C)CC2)no1	621 s
Cc1noc(-c2nn(C)c3c2CN(C(=O)Nc2cccc(F)c2)CC3)n1	744 s
COc1ccc(Cc2nc(-c3cccc(-c4ccn[nH]4)c3)no2)c(Cl)c1	1000 s
Cc1nc(-c2ccccc2)cc2nn(CC(=O)NC3CCCCC3)c(=O)n12	880 s
Cc1ccc(CNC(=O)Cn2ccc3sccc3c2=O)cc1	740 s
COc1ccc(NC(=O)c2cn(-c3cc(N(C)C)ncn3)cn2)cc1F	782 s
CCOc1ccc(-n2c(N3CCCC3)nc3cc(C(=O)OC)ccc3c2=O)cc1	963 s
CN1CCN(c2cccc(Nc3nc4c(-c5ccc(S(C)(=O)=O)cc5)cccn4n3)c2)CC1	675 s
CCOc1ccc(S(=O)(=O)N2CCC3(CC2)CN(C)CC3c2nnc(CC)o2)cc1 (stereo unspecified)	638 s
COc1cccc(C(=O)Nc2nc3c(s2)CN(Cc2ccccc2)CC3)c1OC	585 s
Cc1cc(OC(C)C(=O)N2CCC3(O)CCCCC3C2)c2c3c(c(=O)oc2c1)CCC3 (stereo unspecified)	820 s
Cc1ccc(C(=O)N2CC(n3cc(COc4ccc(F)cc4)nn3)C2)c(=O)[nH]1	655 s
CN(CCCNC(=O)C1CCN(c2nc3ccccc3n(C)c2=O)CC1)C1CCCCC1	650 s
c1cncc(-c2nc(-c3ccc4c(c3)ncn4CCN3CCCCC3)no2)c1	581 s
COC(=O)C1=CN(c2ccc(OC)cc2)c2ccc(F)cc2S1(=O)=O	804 s
Cc1ccc(CN2CC(n3cc(COc4ccc(F)cc4)nn3)C2)s1	684 s
COc1cccc2cc(C(=O)Nc3cc(C)nn3-c3ccccc3)oc12	832 s
Cc1ccc(CNC(=O)C2CCCN(c3nnc(C)c4c(C)n(-c5ccccc5)nc34)C2)cc1 (stereo unspecified)	726 s

SMILES	RP-LC retention time
CCc1ccc(NC(=O)N2CCCC(C)(C(=O)NCc3cccc(OC)c3)C2)cc1 (stereo unspecified)	968 s
CC(C)n1c(=O)sc2cc(S(=O)(=O)N3CCC(C(=O)N(C)C4CCCCC4)CC3)ccc21	716 s
COc1ccc(-c2nc3cc(C)ccn3c2NC(=O)c2ccc(F)cc2)cc1OC	597 s
CCc1ccc(-n2nnc(C(=O)N3CCC4(CC3)OCCO4)c2-c2cccnc2)cc1	783 s
CCOc1ccccc1C(=O)N1CCN(S(=O)(=O)c2cc3c4c(c2)CCC(=O)N4CCC3)CC1	820 s
COc1ncc(C(=O)NCc2ccc(F)c(Cl)c2)cn1	756 s
Cc1ccc(N2C=C(C(=O)N3CCCCC3)S(=O)(=O)c3ccccc32)cc1C	953 s
COc1ccccc1NC(=O)c1ccc(Br)cc1F	1070 s
CCc1nc2cc(N3CCC(C(=O)Nc4ccc(OC)cc4OC)CC3)cnc2nc1CC	877 s
NC(=O)C1CCN(c2ncnc(N)c2[N+](=O)[O-])CC1	512 s
Cn1c(=O)c(N2CCC(NC(=O)Nc3cccc(Br)c3)CC2)nc2ccccc21	965 s
COCc1nc(-c2ccc(OC3CCN(C(=O)c4n[nH]c5ccccc45)C3)cc2)no1 (stereo unspecified)	835 s
Nc1ccc(C(=O)Nc2cccc(N)c2)cc1	752 s
COc1ccc(C(=O)N2C[C@@H]3C[C@H](NC(=O)c4cccnc4)[C@H]2C3)c(OC)c1	605 s
Cc1cccc(N(C)S(=O)(=O)c2ccc3c(c2)CCCC(=O)N3)c1	813 s
CC(C)NC(=O)C1CCCN(c2nc3ncn(CC(=O)NCc4ccccc4)c(=O)c3s2)C1 (stereo unspecified)	672 s
O=C(NCCO)C(=O)NCC1(c2ccccc2)CCCC1	715 s
COc1ccc(Cl)cc1C(=O)N1CCC(C(=O)Nc2nccs2)CC1	697 s
Cc1ccccc1CNC(=O)c1ccc2c(c1)CC(=O)N2C	714 s
O=C(c1ccc2cc[nH]c2c1)N1CCN(C(=O)c2nnn3c2COC(c2ccc(Cl)cc2)C3)CC1 (stereo unspecified)	918 s
